Measurements published in patent publication US8395037B2, “Pharmaceutical compositions for treating/preventing motor organ diseases” (Mitsubishi Corporation, priority 2005, dated 2013).

Tests used:
MMP-1 [1] = test: MMP-1 concentration in synovial fluid of osteoarthritis model knee joints (ELISA); assay type: in vivo, rabbit; settings: various concentrations, sequential measurement, versus control knees
Description: (§1) Sequential biochemical examinations of blood and synovial fluid were also performed (pre-administration and fourth- and eighth-week post-administration of water-solubilized fullerene). The observed biochemical examination items were (A) hepatic function (GOT and GPT), renal function (urea nitrogen and creatinine), and electrolytes (Na, K, and Cl), (B) extracellular matrix-degrading enzyme production ability (MMP-1, 3, and 13), and (C) cartilage matrix-synthesizing ability (proteoglycan). The items of (A) were measured by commercially available testing equipments and items of (B) and (C) were measured by ELISA method.

cultured chondrocytes = test: Chondrocyte-proliferation ability under cartilage degenerating factors; assay type: cell-based; settings: cultured chondrocytes treated with IL-1β and H2O2
MMP-13 [2] = test: MMP-13 production in cultured chondrocytes treated with cartilage degenerating factor (ELISA); assay type: cell-based, human; settings: for Production of MMP-13: IL-1β or H2O2 treated chondrocytes, 50 or 100 μM, 24 h
Description: (§2) Chondrocytes isolated from human articular cartilage tissues were used for cultured cells. After obtaining informed consent, cartilage tissues were collected from surgically-removed tissues from eight osteoarthritis patients. The collected tissues were sliced and then treated in a liquid low-glucose Dulbecco's modified Eagle's medium (DMEM, manufactured by Gibco Co.) containing 1.5 mg/ml collagenase B at 37° C. overnight, to isolate chondrocytes for culture. The cells were normally cultured in a culture flask (culture area: 25 cm^2), and in a polystyrene culture dish (diameter: 6 cm) for use in the experiments. […]
(§3) Influence of hydroxylated C60 fullerene on cartilage matrix-degrading enzyme production which is enhanced by cartilage catabolism inducers was analyzed using the enzyme-linked immunoassay (ELISA) method.
(§4) Chondrocytes that had been isolated and cultured by the above method (1) were subjected to two passage cultures. […] After a 24 hour incubation, the culture supernatant was collected, and the concentrations of cartilage matrix-degrading enzymes, matrix metalloprotease (MMP)-1, 3, and 13, were measured.
(§5) The concentrations of MMP-1, MMP-3, and MMP-13 in the culture supernatant were determined using ELISA kits (kits for MMP-1 and MMP-3, manufactured by R&D Co.; and a kit for MMP-13, manufactured by Amersham), which is the standard technique currently known in the art. […] 100 μl of 1.5 N H3PO4 was added to each well to stop the color reaction, and the absorbance at 450 nm was measured using a microtiter plate reader. According to the instructions provided by the manufacturer, the measured concentrations were calibrated using a lyophilized control reagent.

MMP-1 [3] = test: MMP-1 production in cultured chondrocytes treated with cartilage degenerating factor (ELISA); assay type: cell-based, human; settings: for Production of MMP-1: IL-1β or H2O2 treated chondrocytes, 50 or 100 μM, 24 h
Description: as §2, §3, §4, §5

proteoglycan = test: Proteoglycan production in cultured chondrocytes (western blotting); assay type: cell-based, human; settings: chondrocytes treated with cartilage degenerating factors
Description: Chondrocytes prepared according to the above method and chondrocytes of the control groups were collected with a cell scraper, and centrifuged to remove the supernatant. Then, 0.5% Triton X-100 aqueous solution was added thereto, and ultrasonic disintegration was performed on ice for one minute, to obtain a protein extract. The concentrations of the respective protein solutions were measured, and each sample was placed on 5% to 10% gradient SDS-polyacrylamide electrophoresis gel at 100 ng/lane, and subjected to electrophoresis.
Proteins in the gel were transferred onto a polyvinylidene difluoride membrane (manufactured by Pharmacia Co.) using a semidry blotting apparatus (manufactured by Amersham). The membrane was blocked with 5% skim milk (manufactured by Morinaga Co.), and then treated with 5 μg/ml of anti-proteoglycan monoclonal antibodies (manufactured by Chemicon Co.) at room temperature for one hour. The membrane was washed with PBS containing 0.01% Tween-20 (hereunder, abbreviated as “TPBS”), and then treated with 5,000-fold-diluted peroxidase-labeled anti-mouse IgG antibodies (manufactured by Amersham) as secondary antibodies, at room temperature for one hour. […]

MMP-13 [4] = test: MMP-13 concentration in synovial fluid of osteoarthritis model knee joints (ELISA); assay type: in vivo, rabbit; settings: various concentrations, sequential measurement, versus control knees
Description: as §1

MMP-3 = MMP-3 concentration in synovial fluid of osteoarthritis model knee joints (ELISA); assay type: in vivo, rabbit; settings: various concentrations, sequential measurement, versus control knees
Description: as §1

## hydroxylated C60 fullerene
MMP-1 [1]
  MMP-1 concentration in synovial fluid: MMP-1 production inhibitory effect was observed
Cultured chondrocytes
  Decrease of chondrocyte-proliferation ability: inhibited decrease of chondrocyte-proliferation ability
MMP-13 [2]
  Production of MMP-13: inhibited in all cases
MMP-13 [2]; listed as fullerene
  Production of MMP-13: decreased the amount of MMP-13 produced
MMP-13 [2]; hypoxic condition
  Inhibitory effect on production of MMP-13: also observed
MMP-1 [3]
  Production of MMP-1: inhibited in all cases
MMP-1 [3]; listed as fullerene
  Production of MMP-1: decreased the amount of MMP-1 produced
MMP-1 [3]; hypoxic condition
  Inhibitory effect on production of MMP-1: also observed
proteoglycan
  Production of proteoglycan (western blotting): the inhibition against the production of cartilage matrix, proteoglycan, due to the cartilage degenerating factors was inhibited
proteoglycan; listed as fullerene
  Production of proteoglycan (western blotting): restored
MMP-13 [4]
  MMP-13 concentration in synovial fluid: MMP-13 production inhibitory effect was observed
MMP-3
  MMP-3 concentration in synovial fluid: No remarkable difference
